# Patent publication US11181447B2, “Apparatus and method for determination of the fine particle dose of a powder inhalation formulation” (NANOPHARM LIMITED, priority 2016, dated 2021)
# Test: Paddle dissolution test (USP 711) of the aerosol dose collected on a filter in the apparatus of the invention
# Type: physicochemical
# Conditions: drug loading 50-500 μg, surface coverage 3.89-38.92 μg/cm^2; 1, 2, 5 and 10 actuations; DPI and MDI
# Description: In accordance with one embodiment of the invention, collected particles are subjected to a dissolution test. Dissolution tests are widely practised in the art and the selection of suitable dissolution media and methods for particles collected from a given drug formulation are a routine matter for those skilled in the art. One such test, which may be expediently used, is the paddle dissolution test (US Pharmocopeial Convention 2011, 711, Dissolution, Paddle Apparatus). Illustrative commonly used dissolution media include e.g. phosphate buffered saline (PBS) solution either with or without the addition of a surfactant (e.g. Tween 20, Tween 80, SDS etc.). The solution can be chemically analysed, for example by HPLC, to determine the mass collected.
# Collection of the samples of FIGS. 7A and 7B was accomplished in an apparatus according to FIG. 4 in which a glass microfibre filter (Pall Corporation, A/E filter) having a nominal filter pore size of 1 μm was used. The reference scale on each image of FIGS. 7A and 7B corresponds to 10 μm.
# In each run, after the relevant number of doses had been delivered into the device, the filter was removed and the collected mass dissolved in phosphate buffered saline (PBS) solution using the paddle dissolution method (USP 711, 2011) and chemically analysed by HPLC to determine the mass collected. […]
smiles,measurement,value
CCC(=O)O[C@]1(C(=O)SCF)[C@H](C)C[C@H]2[C@@H]3C[C@H](F)C4=CC(=O)C=C[C@]4(C)[C@@]3(F)[C@@H](O)C[C@@]21C [fluticasone propionate],dependence of dissolution release profiles on drug loading,independent of drug loading
